Experimental data as given in article PMC3365113, “Exploiting Ligand-Protein Conjugates to Monitor Ligand-Receptor Interactions” (PLoS ONE, 2012).
Blank lines part the entries; values can stand above or below the compound they belong to.

Experiments:
SNAP-ORP7 = molecular target: T1, SNAP-ORP7 (Homo sapiens, UniProt Q9BZF2); assay type: binding; conditions: HEK293 cell extract, free erlotinib 10 µM
T1 construct: strep-tag (N); made in house; host or cells: HEK293 (suspension HEK-293E), transient transfection, Strep-tactin purified
T1 sequence (Q9BZF2 1-842): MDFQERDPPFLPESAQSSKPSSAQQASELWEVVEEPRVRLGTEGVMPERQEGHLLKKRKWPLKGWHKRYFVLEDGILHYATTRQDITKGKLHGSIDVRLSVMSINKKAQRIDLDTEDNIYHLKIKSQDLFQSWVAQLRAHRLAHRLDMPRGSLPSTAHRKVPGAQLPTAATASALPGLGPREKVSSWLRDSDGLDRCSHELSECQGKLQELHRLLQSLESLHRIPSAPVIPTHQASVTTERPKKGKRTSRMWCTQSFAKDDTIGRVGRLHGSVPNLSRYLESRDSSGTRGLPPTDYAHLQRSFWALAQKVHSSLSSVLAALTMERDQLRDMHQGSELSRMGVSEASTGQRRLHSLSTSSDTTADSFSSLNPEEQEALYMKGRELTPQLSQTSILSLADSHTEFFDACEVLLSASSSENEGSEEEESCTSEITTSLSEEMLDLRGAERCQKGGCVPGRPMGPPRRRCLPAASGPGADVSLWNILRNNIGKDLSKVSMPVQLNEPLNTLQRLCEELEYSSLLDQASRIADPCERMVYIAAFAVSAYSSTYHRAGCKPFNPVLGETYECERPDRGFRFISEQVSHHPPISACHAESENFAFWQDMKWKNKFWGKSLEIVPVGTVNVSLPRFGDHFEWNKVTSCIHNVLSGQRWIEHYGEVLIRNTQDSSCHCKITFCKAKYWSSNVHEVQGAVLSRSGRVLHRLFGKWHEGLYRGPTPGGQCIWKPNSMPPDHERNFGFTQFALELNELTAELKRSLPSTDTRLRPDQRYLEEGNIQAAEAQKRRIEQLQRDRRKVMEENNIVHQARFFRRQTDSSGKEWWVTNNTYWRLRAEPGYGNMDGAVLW

PDE6D = molecular target: T2, PDE6D (Homo sapiens, UniProt O43924); assay: Cell imaging assay in fixed U2OS cells; assay type: binding; conditions: 100 nM atorvastatin-SNAP-EGFP
T2 construct: expressed in transfected cells; host or cells: U2OS
Description: (§1) Finally, we developed a binding assay applicable to fixed cells. Such an assay is desirable if the protein to be analyzed is insoluble or unstable in extracts. In this assay (Figure 1B, 7A), the epitope-tagged receptor protein is over-expressed in mammalian cells by transient transfection. The cells are fixed with paraformaldehyde and permeabilized with nonionic detergent. The expression of the receptor protein is then confirmed by visualization with the anti-epitope tag antibody conjugated with a fluorophore using immunofluorescence microscopy. In parallel, the ligand-protein interaction is examined with the aid of BG-derivatized ligand conjugated to EGFP via SNAP-tag. […] We evaluated the generality of this method using other previously validated drug-protein interactions (PDE6D-atorvastatin, PTK2B-purvalanol B, and FYN-dasatinib). Binding of all three pairs was detected with this method (Figure S3).
(§2) Supplementary file pone.0037598.s003.tif: Figure S3 Cell imaging assay using validated drug-receptor pairs. (A) U2OS cells were transfected with a plasmid which express V5 tagged PDE6D. One day after transfection, cells were fixed with 4% paraformaldehyde, and permeabilized with 0.1% Tritin X-100. After washing, the cells were incubated with anti-V5-antibody conjugated with FITC or 100 nM atorvastatin-SNAP-EGFP. Fluorescence images (GFP filter) were taken within 30 min after washing of the cells. (B) (C) Cell imaging assay using pairs of purvalanol B-PTK2B and dasatinib-FYN, respectively. (TIF) Click here for additional data file.

PTK2B = molecular target: T3, PTK2B (Homo sapiens, UniProt Q14289); assay: Cell imaging assay in fixed U2OS cells; assay type: binding; conditions: ligand as SNAP-EGFP conjugate
T3 construct: expressed in transfected cells; host or cells: U2OS
Description: as §1, §2

FYN = molecular target: T4, FYN (Homo sapiens, UniProt P06241); assay: Cell imaging assay in fixed U2OS cells; assay type: binding; conditions: ligand as SNAP-EGFP conjugate
T4 construct: expressed in transfected cells; host or cells: U2OS
Description: as §1, §2

SNAP-eDHFR WT [1] = molecular target: T5, SNAP-eDHFR WT (Escherichia coli, UniProt P0ABQ4); assay: biochemical; assay type: binding
SNAP-eDHFR L54I = SNAP-eDHFR L54I (Escherichia coli, UniProt P0ABQ4, L54I); assay: biochemical; assay type: binding
SNAP-eDHFR L54G = SNAP-eDHFR L54G (Escherichia coli, UniProt P0ABQ4, L54G); assay: biochemical; assay type: binding
SNAP-eDHFR WT [2] = molecular target: T5, SNAP-eDHFR WT; assay: biochemical
[3] = tested on: eDHFR (every eDHFR mutant); assay: SNAP-based TR-FRET competition assay using MTX and MTX-BG as competitors; assay type: binding, Escherichia coli; conditions: MTX-BG vs MTX, 100 µM NADPH

Effect of free ligand on hetero-crosslinking product band (SNAP-ORP7): no longer detected
Compound: C#Cc1cccc(Nc2ncnc3cc(OCCOC)c(OCCOC)cc23)c1 [erlotinib]

Binding detected by cell imaging, PDE6D (PDE6D): detected
Compound: CC(C)c1c(C(=O)Nc2ccccc2)c(-c2ccccc2)c(-c2ccc(F)cc2)n1CC[C@@H](O)C[C@@H](O)CC(=O)O [atorvastatin]

Binding detected by cell imaging, PTK2B (PTK2B): detected
Compound: CC(C)[C@H](CO)Nc1nc(Nc2ccc(C(=O)O)c(Cl)c2)c2ncn(C(C)C)c2n1 [purvalanol B]

Binding detected by cell imaging, FYN (FYN): detected
Compound: Cc1nc(Nc2ncc(C(=O)Nc3c(C)cccc3Cl)s2)cc(N2CCN(CCO)CC2)n1 [dasatinib]

Compound: COc1cc(NCc2ccc3nc(N)nc(N)c3c2C)cc(OC)c1OC [Trimetrexate, trimetrexate]
Kd (SNAP-eDHFR WT [1]): 0.15 ± 0.01 nM | Kd (SNAP-eDHFR L54I): 0.1 ± 0.01 nM | Kd (SNAP-eDHFR L54G): 0.64 ± 0.04 nM | IC50 (SNAP-eDHFR WT [2]): 0.27 ± 0.03 nM

Compound: CC1(C)N=C(N)N=C(N)N1OCCCOc1cc(Cl)c(Cl)cc1Cl [WR99210]
Kd (SNAP-eDHFR WT [1]): 12000 ± 950 nM | Kd (SNAP-eDHFR L54I): 2600 ± 210 nM | Kd (SNAP-eDHFR L54G): 15000 ± 790 nM | IC50 (SNAP-eDHFR WT [2]): 54000 ± 16000 nM

Compound: methotrexate-BG [MTX-BG]
Change of Kd values by derivatization of MTX with BG [3]: about 10 fold
